Experimental data: patent publication US20070298105A1, “METHODS OF TREATING CONDITIONS BY SUSTAINED RELEASE ADMINISTRATION OF BENZIMIDAZOLE DERIVATIVES” (priority 2006, published 2007)
Read-outs that look alike come from different tables or passages of the source.

Tests used:
[1] = test system: intragastric pH; assay: Colonic intubation study: intragastric pH profile (percent of time with pH >4); format: in vivo, human; conditions: for Mean percent of time with pH >4: TRT E: esomeprazole 40 mg oral tablet
Experimental: A single-dose, open-label, partially randomized, five-treatment, five-period, crossover pilot study was performed in healthy males to determine relative pharmacokinetics of rabeprazole, and comparators when dosed either orally or colonically. The study was a single dose study with blood sampling up to 24 hours following initiation.
Treatments A and B were rabeprazole sodium solution dosed to provide 30 and 60 mg, respectively, over 20 hours in the transverse colon of the subjects. Colonic dosing occurred using a nasoenteral tube. Treatment C was a single 20 mg dose of rabeprazole sodium oral enteric coated tablets dosed orally. Treatment D was placebo (200 mL of water) dosed orally.
The intragastric pH profile was analyzed based on the percentage of time that the intragastric pH was above 4, which was calculated for the full 24 hours. In addition, the mean pH value over 5 time intervals of 6 hours each during the 30-hr sampling time was also estimated.

[2] = Colonic intubation study: plasma pharmacokinetics of rabeprazole and esomeprazole; format: in vivo, human; conditions: male, human, plasma, po, 40 mg; for AUC(0-inf): read-out: AUCinf (mean)
Experimental: A single-dose, open-label, partially randomized, five-treatment, five-period, crossover pilot study was performed in healthy males to determine relative pharmacokinetics of rabeprazole, and comparators when dosed either orally or colonically. The study was a single dose study with blood sampling up to 24 hours following initiation. […] Colonic dosing occurred using a nasoenteral tube. Treatment C was a single 20 mg dose of rabeprazole sodium oral enteric coated tablets dosed orally. Treatment D was placebo (200 mL of water) dosed orally. […] For subjects whose apparent elimination rate constant [k] could not be properly determined, the AUC to infinity [AUCinf]) was calculated based on the median apparent elimination constant [k] of the subjects with available t1/2 values in the same treatment period. […] The intragastric pH profile were determined.

[3] = TRT E: esomeprazole 40 mg oral tablet, N = 19
[4] = TRT E: esomeprazole 40 mg oral tablet, subset N = 14

## COc1ccc2nc([S@@+]([O-])Cc3ncc(C)c(OC)c3C)[nH]c2c1 [Esomeprazole]
[1]; 0-6 hr (10 am-4 pm), N = 19
  Mean percent of time with pH >4: 57.0%
[1]; 0-6 hr (10 am-4 pm), subset N = 14
  Mean percent of time with pH >4: 64.3%
[1]; 6-12 hr (4 pm-10 pm), N = 19
  Mean percent of time with pH >4: 76.3%
[1]; 6-12 hr (4 pm-10 pm), subset N = 14
  Mean percent of time with pH >4: 87.0%
[1]; 12-18 hr (10 pm-4 am), N = 19
  Mean percent of time with pH >4: 36.6%
[1]; 12-18 hr (10 pm-4 am), subset N = 14
  Mean percent of time with pH >4: 42.8%
[1]; 18-24 hr (4 am-10 am), N = 19
  Mean percent of time with pH >4: 56.0%
[1]; 18-24 hr (4 am-10 am), subset N = 14
  Mean percent of time with pH >4: 60.1%
[1]; 24-30 hr (10 am-4 pm), N = 19
  Mean percent of time with pH >4: 49.5%
[1]; 24-30 hr (10 am-4 pm), subset N = 14
  Mean percent of time with pH >4: 57.1%
[1]; 24-hr average, N = 19
  Mean percent of time with pH >4: 56.5%
[1]; 24-hr average, N = 19, listed as esomeprazole
  Mean percent of time with pH >4: 57%
[1]; 24-hr average, subset N = 14
  Mean percent of time with pH >4: 63.5%
[1]; first 6 hours of treatment, esomeprazole treatment
  effect on percentage of time with pH >4 compared to placebo: significant increase
[2]; [3]
  AUC(0-t): 1870 ng·h/mL
  AUC(0-inf): 1910 ng·h/mL
[2]; TRT E: esomeprazole 40 mg oral tablet, N = 19, read-out: t1/2 (median) (converted)
  half-life: 48 min
[2]; TRT E: esomeprazole 40 mg oral tablet, single dose, healthy males, N = 19
  Cmax: 727 ng/mL
[2]; [4]
  AUC(0-t): 2270 ng·h/mL
  Cmax: 800 ng/mL
  AUC(0-inf): 2310 ng·h/mL
[2]; oral administration of 40 mg esomeprazole, read-out: median half-life (converted)
  half-life: ~60 min
